Targets include MARK3 (Homo sapiens, UniProt P27448); CAMK1G (Homo sapiens, UniProt Q96NX5); BRAF (Homo sapiens, UniProt P15056); CAMK1D (Homo sapiens, UniProt Q8IU85); WNK1 (Homo sapiens, UniProt Q9H4A3).
Experiment in all cases: biochemical
Design in all cases: Thermal shift (DSF, SYPRO Orange) Tm shift of recombinant kinase domains at 10 uM compound

The next assay addresses T1, p38a (Homo sapiens, UniProt Q16539).
T1 construct: gene MAPK14

The next assay has as its target T2, BMX (Homo sapiens, UniProt P51813).
T2 sequence (P51813 1-675): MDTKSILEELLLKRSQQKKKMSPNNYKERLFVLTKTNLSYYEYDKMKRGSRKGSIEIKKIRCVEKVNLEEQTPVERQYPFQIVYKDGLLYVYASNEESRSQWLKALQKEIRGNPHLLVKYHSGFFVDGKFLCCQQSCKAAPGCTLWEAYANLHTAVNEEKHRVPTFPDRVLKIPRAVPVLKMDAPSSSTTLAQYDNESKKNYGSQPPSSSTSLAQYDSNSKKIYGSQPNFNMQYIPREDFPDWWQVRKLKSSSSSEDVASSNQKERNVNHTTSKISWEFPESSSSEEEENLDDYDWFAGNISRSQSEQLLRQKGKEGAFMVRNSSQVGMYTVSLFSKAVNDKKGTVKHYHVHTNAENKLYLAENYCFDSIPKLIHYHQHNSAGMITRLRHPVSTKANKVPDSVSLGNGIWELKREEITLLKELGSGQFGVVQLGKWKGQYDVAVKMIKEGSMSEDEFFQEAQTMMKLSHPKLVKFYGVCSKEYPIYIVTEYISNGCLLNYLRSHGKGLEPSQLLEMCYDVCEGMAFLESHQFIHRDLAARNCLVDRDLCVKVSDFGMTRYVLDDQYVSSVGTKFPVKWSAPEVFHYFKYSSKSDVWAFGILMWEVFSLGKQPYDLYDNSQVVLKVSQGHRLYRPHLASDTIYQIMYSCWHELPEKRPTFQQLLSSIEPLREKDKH

The next assay has as its target T3, CAMK4 (Homo sapiens, UniProt Q16566).
T3 sequence (Q16566 1-473): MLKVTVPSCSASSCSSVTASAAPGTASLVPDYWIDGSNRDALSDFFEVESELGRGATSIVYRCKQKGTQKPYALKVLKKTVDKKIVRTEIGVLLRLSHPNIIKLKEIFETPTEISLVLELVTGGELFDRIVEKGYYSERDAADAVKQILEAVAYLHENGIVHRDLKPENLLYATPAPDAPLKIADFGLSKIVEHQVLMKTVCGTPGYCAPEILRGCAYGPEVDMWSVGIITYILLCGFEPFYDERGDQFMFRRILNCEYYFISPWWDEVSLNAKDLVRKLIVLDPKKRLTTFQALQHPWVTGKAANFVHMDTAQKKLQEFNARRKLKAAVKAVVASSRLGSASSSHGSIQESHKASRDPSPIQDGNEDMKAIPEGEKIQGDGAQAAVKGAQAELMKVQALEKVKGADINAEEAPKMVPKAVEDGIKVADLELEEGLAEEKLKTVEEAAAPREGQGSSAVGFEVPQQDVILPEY

The next assay concerns the target T4, MST1 (Homo sapiens, UniProt Q13043).
T4 construct: gene STK4
T4 sequence (Q13043 1-487): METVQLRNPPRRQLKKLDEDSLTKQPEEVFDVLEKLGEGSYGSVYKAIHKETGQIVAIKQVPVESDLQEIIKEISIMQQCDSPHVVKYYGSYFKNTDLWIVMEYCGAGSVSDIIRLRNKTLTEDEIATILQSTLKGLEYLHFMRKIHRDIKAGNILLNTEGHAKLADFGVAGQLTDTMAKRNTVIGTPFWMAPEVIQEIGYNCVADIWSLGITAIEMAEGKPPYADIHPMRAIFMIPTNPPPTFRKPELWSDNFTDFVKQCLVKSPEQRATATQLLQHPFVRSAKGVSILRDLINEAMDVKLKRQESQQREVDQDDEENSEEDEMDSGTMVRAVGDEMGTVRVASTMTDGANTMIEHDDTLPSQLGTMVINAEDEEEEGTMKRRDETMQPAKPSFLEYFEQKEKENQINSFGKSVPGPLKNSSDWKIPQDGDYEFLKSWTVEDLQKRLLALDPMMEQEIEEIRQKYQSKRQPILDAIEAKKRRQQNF

The target of the next assay is T5, MST3 (Homo sapiens, UniProt Q9Y6E0).
T5 construct: gene STK24
T5 sequence (Q9Y6E0 whole entry): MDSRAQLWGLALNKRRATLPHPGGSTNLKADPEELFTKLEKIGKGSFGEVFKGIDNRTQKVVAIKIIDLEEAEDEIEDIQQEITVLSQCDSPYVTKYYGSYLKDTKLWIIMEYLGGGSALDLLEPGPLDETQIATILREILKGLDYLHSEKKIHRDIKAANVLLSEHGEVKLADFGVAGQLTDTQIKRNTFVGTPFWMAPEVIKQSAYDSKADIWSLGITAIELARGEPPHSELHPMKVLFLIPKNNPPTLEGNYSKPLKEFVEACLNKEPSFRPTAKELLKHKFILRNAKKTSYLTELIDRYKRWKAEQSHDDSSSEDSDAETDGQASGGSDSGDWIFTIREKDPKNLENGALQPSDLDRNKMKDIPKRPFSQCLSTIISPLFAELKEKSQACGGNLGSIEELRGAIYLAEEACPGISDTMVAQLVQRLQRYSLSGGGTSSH

A further assay deals with T6, JNK2 (Homo sapiens, UniProt P45984).
T6 construct: gene MAPK9
T6 sequence (P45984 whole entry): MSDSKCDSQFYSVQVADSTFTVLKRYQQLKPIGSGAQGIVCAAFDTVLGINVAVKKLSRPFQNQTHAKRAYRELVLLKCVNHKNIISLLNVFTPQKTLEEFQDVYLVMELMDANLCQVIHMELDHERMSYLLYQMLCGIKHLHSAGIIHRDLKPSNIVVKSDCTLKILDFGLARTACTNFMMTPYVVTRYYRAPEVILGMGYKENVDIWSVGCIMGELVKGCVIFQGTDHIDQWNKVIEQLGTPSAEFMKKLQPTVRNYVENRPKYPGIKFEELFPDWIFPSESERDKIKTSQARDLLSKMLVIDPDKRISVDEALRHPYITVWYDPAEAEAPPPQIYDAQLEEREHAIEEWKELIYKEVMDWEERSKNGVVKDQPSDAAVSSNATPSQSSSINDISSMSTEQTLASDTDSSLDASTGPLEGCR

Read-outs that look alike come from different tables or passages of the source.

Chain of CAMK1D (Q8IU85 whole entry): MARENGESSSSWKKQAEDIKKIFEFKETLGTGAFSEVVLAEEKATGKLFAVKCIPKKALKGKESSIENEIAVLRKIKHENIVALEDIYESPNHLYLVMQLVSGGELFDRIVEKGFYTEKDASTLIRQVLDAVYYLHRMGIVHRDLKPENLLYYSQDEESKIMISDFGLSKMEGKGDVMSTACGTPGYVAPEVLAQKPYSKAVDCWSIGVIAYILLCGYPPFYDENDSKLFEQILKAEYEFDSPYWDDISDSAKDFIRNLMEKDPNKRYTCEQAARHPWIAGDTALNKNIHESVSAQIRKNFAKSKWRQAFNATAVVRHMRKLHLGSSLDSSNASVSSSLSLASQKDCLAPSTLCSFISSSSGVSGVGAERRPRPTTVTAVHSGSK
Chain of MARK3 (P27448 whole entry): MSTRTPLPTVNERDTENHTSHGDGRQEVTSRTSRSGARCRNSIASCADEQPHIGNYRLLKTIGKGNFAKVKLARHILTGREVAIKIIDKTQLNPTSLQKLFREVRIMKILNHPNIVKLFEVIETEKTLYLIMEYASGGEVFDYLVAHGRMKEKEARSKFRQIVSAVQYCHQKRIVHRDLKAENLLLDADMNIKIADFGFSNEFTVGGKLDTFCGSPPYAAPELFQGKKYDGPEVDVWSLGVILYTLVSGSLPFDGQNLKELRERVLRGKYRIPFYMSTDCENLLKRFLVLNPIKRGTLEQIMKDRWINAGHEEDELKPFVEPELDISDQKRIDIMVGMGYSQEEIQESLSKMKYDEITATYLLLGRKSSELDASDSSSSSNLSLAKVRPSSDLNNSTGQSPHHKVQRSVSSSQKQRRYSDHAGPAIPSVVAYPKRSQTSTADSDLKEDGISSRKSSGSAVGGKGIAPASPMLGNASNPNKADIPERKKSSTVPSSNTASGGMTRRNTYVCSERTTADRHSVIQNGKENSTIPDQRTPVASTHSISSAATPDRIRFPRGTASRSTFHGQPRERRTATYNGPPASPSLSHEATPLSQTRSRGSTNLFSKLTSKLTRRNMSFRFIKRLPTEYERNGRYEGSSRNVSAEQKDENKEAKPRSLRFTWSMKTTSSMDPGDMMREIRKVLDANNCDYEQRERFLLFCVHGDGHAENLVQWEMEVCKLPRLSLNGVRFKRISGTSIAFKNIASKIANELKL
T1 sequence (Q16539 whole entry): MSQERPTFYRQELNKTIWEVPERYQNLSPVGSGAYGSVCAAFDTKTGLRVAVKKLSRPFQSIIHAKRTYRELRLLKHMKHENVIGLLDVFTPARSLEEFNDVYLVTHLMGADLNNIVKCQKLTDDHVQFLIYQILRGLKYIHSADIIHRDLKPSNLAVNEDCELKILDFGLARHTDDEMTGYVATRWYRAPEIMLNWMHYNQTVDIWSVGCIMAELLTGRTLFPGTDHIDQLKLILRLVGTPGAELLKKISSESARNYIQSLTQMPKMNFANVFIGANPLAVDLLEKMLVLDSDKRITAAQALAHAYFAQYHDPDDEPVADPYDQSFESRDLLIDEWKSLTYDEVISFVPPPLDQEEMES
Chain of CAMK1G (Q96NX5 whole entry): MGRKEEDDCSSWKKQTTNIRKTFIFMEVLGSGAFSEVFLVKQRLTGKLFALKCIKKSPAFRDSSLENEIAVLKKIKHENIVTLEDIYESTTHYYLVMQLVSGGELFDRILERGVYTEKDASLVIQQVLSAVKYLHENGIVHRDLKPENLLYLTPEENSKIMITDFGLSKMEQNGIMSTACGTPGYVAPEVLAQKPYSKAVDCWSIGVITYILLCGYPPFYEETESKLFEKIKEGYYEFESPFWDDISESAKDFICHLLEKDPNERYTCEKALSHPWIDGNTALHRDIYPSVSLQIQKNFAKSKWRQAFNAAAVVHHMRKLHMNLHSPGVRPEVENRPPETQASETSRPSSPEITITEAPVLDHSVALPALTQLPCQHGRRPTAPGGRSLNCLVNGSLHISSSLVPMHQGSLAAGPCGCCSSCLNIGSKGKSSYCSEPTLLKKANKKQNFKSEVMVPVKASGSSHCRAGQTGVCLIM
Chain of BRAF (P15056 whole entry): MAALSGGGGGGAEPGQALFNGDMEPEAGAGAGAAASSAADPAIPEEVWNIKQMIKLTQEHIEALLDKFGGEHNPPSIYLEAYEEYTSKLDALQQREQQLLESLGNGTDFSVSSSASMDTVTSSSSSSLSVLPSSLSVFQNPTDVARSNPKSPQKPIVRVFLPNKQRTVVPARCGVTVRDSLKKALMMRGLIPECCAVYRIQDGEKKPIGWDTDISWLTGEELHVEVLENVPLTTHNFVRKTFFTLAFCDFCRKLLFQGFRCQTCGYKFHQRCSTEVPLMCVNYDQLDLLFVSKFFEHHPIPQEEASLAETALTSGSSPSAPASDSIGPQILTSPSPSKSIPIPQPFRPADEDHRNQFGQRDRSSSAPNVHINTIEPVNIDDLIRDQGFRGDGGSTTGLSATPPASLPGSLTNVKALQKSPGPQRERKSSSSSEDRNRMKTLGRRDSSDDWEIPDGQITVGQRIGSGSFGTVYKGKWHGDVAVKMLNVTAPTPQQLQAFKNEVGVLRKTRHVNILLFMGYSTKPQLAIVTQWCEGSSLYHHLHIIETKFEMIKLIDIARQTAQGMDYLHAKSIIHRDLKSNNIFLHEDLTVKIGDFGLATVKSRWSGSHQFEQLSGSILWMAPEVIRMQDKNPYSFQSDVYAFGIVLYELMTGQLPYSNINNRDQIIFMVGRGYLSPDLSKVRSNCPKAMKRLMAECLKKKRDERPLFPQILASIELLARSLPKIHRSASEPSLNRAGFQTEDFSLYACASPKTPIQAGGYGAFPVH

Regarding `CC(C)Oc1ccc2ccn(-c3cncc(-c4ccc(C(=O)O)cc4)n3)c2c1` [6c], the ΔTm at 10 µM on p38a (read-out: 6c) was -3 °C; on MARK3 (read-out: 6c), -1 °C; at CAMK1G (read-out: 6c), 0 °C; at BMX (read-out: 6c) it was 2 °C; at BRAF (read-out: 6c) it was 8 °C; on CAMK4 (read-out: 6c), 0 °C. The ΔTm at 10 µM is 0 °C at CAMK1D (read-out: 6c); 1 °C on MST1 (read-out: 6c); -3 °C at MST3 (read-out: 6c); 2 °C on WNK1 (read-out: 6c); 0 °C at JNK2 (read-out: 6c).

With `COc1ccc(OC(C)C)cc1Nc1cncc(-c2ccc(C(=O)O)cc2)n1` [7c], the ΔTm at 10 µM on p38a (read-out: 7c) was -1 °C; at MARK3 (read-out: 7c), -1 °C; on CAMK1G (read-out: 7c), -1 °C; on BMX (read-out: 7c), 1 °C; on BRAF (read-out: 7c), 7 °C; at CAMK4 (read-out: 7c), -1 °C. The ΔTm at 10 µM at CAMK1D (read-out: 7c) is 0 °C; at MST1 (read-out: 7c) it was 1 °C; at MST3 (read-out: 7c) it was -3 °C; on WNK1 (read-out: 7c), 0 °C; on JNK2 (read-out: 7c) it was 0 °C.

For the compound `CC(C)Nc1ccc2cnn(-c3cncc(-c4ccc(C(=O)O)cc4)n3)c2c1` [compound 2, 2], the ΔTm at 10 µM on p38a (read-out: 2) is -1 °C; on MARK3 (read-out: 2), 0 °C; on CAMK1G (read-out: 2), 2 °C; at BMX (read-out: 2) it was 3 °C; on BRAF (read-out: 2), 6 °C; at CAMK4 (read-out: 2), 1 °C. Also, the ΔTm at 10 µM turned out to be 2 °C on CAMK1D (read-out: 2); 3 °C on MST1 (read-out: 2); 1 °C on MST3 (read-out: 2); 1 °C at WNK1 (read-out: 2); 1 °C at JNK2 (read-out: 2).

The values above are taken from doi:10.1101/2023.12.04.569845, “Identification of 4-(6-((2-methoxyphenyl)amino)pyrazin-2-yl)benzoic acids as CSNK2A inhibitors with antiviral activity and improved selectivity over PIM3” (bioRxiv, 2023).
